Results: ChEMBL document CHEMBL2385067, “Preparation of S14161 and its analogues and the discovery of 6-bromo-8-ethoxy-3-nitro-2H-chromene as a more potent antitumor agent in vitro” (2013)
The source made the active and inactive calls. The rule behind the calls is not given here.

Experiments:
LP-1 = test: Cytotoxicity against human LP-1 cells after 24 to 72 hrs by SRB assay; assay type: functional
K562 = test: Cytotoxicity against human K562 cells after 24 to 72 hrs by SRB assay; assay type: functional
HeLa [1] = test: Inhibition of PI3K in human HeLa cells assessed as inhibition of EGF1-induced AKT phosphorylation up to 20 uM after 24 hrs by Western blot analysis; assay type: cell-based
SK-OV-3 [2] = test: Inhibition of PI3K in human SKOV3 cells assessed as inhibition of EGF1-induced AKT phosphorylation up to 20 uM after 24 hrs by Western blot analysis; assay type: cell-based
HUVEC = test: Antiangiogenic activity in HUVEC assessed as inhibition of cell migration by measuring area of wounded gap at 5 uM after 8 to 24 hrs by wound healing assay; assay type: functional, Homo sapiens; design: scale not given: the % may be the effect or the level left
HeLa [3] = test: Growth inhibition of human HeLa cells at 20 uM after 24 hrs by SRB assay; assay type: functional
HeLa [4] = test: Growth inhibition of human HeLa cells at 5 uM after 24 hrs by SRB assay; assay type: functional, cell-based
A549 [5] = test: Growth inhibition of human A549 cells at 5 to 20 uM after 24 hrs by SRB assay; assay type: functional, cell-based
SPCA1 = test: Growth inhibition of human SPCA1 cells at 20 uM after 72 hrs by SRB assay; assay type: functional, cell-based
NCI-H460 = test: Growth inhibition of human H460 cells at 20 uM after 72 hrs by SRB assay; assay type: functional, cell-based
HeLa [6] = test: Growth inhibition of human HeLa cells at 20 uM after 72 hrs by SRB assay; assay type: functional, cell-based
A549 [7] = test: Growth inhibition of human A549 cells at 20 uM after 72 hrs by SRB assay; assay type: functional, cell-based
H47D [8] = test: Growth inhibition of human H47D cells at 20 uM after 72 hrs by SRB assay; assay type: functional, cell-based
SK-OV-3 [9] = test: Growth inhibition of human SKOV3 cells at 20 uM after 72 hrs by SRB assay; assay type: functional, cell-based
PC-3 = test: Growth inhibition of human PC3 cells at 20 uM after 72 hrs by SRB assay; assay type: functional, cell-based
[10] = Cytotoxicity against human U87 cells after 24 to 72 hrs by SRB assay; assay type: functional, U-87MG ATCC; conditions: U-87 MG
B16 = test: Cytotoxicity against mouse B16 cells after 24 to 72 hrs by SRB assay; assay type: functional
MDA-MB-231 = test: Cytotoxicity against human MDA-MB-231 cells after 24 to 72 hrs by SRB assay; assay type: functional
A549 [11] = test: Induction of apoptosis in human A549 cells assessed as activation of caspase-3 at 10 uM; assay type: functional, cell-based
SK-OV-3 [12] = test: Inhibition of PI3K in human SKOV3 cells assessed as inhibition of EGF1-induced AKT protein level up to 20 uM after 24 hrs by Western blot analysis; assay type: cell-based
A549 [13] = test: Inhibition of PI3K in human A549 cells assessed as inhibition of EGF1-induced AKT protein level up to 20 uM after 24 hrs by Western blot analysis; assay type: cell-based
H47D [14] = test: Inhibition of PI3K in human H47D cells assessed as inhibition of EGF1-induced AKT phosphorylation up to 20 uM after 24 hrs by Western blot analysis; assay type: cell-based
A549 [15] = test: Induction of apoptosis in human A549 cells assessed as activation of caspase-3 at 5 uM; assay type: functional, cell-based
A549 [16] = test: Inhibition of PI3K in human A549 cells assessed as inhibition of EGF1-induced AKT phosphorylation up to 20 uM after 24 hrs by Western blot analysis; assay type: cell-based
HeLa [17] = test: Growth inhibition of human HeLa cells after 24 hrs by SRB assay; assay type: functional, cell-based
H47D [18] = test: Inhibition of PI3K in human H47D cells assessed as inhibition of EGF1-induced AKT protein level up to 20 uM after 24 hrs by Western blot analysis; assay type: cell-based
HeLa [19] = test: Inhibition of PI3K in human HeLa cells assessed as inhibition of EGF1-induced AKT protein level up to 20 uM after 24 hrs by Western blot analysis; assay type: cell-based

| SMILES | GI50 (LP-1) [nM] | GI50 (K562) [nM] | inhibition (HeLa [1]) | inhibition (SK-OV-3 [2]) | Activity (HUVEC) [%] | growth inhibition (GI) (HeLa [4]) | growth inhibition (GI) (A549 [5]) | growth inhibition (GI) (SPCA1) | growth inhibition (GI) (NCI-H460) | growth inhibition (GI) (HeLa [6]) | growth inhibition (GI) (A549 [7]) | growth inhibition (GI) (H47D [8]) | growth inhibition (GI) (SK-OV-3 [9]) | growth inhibition (GI) (PC-3) | GI50 [10] [nM] | GI50 (B16) [nM] | GI50 (MDA-MB-231) [nM] | Activity (A549 [11]) | also measured |
| --- | --- | --- | --- | --- | --- | --- | --- | --- | --- | --- | --- | --- | --- | --- | --- | --- | --- | --- | --- |
| CCOc1cccc2c1OC(c1ccc(OC)cc1)C([N+](=O)[O-])=C2 (centres undefined) | 3160 | 4860 | – | – | – | – | – | – | – | – | – | – | – | – | – | – | – | – | – |
| CCOc1cccc2c1OC(c1ccc(F)cc1)C([N+](=O)[O-])=C2 (centres undefined) | 570 | 1240 | Active | Active | <50 | Active | Active | Active | Active | Active | Active | Active | Active | Active | 18700 | 23300 | 8530 | Active | growth inhibition (GI) (HeLa [3]): Active |
| CCOc1cccc2c1OC(c1ccc(C#N)cc1)C([N+](=O)[O-])=C2 (centres undefined) | 440 | 1020 | – | – | – | – | – | – | – | – | – | – | – | – | – | – | – | – | – |
| CCOc1cccc2c1OCC([N+](=O)[O-])=C2 | 640 | 1680 | – | – | – | – | – | – | – | – | – | – | – | – | – | – | – | – | – |
| CCOc1cccc2c1OC(c1ccccc1)C([N+](=O)[O-])=C2 (centres undefined) | 960 | 1180 | – | – | – | – | – | – | – | – | – | – | – | – | – | – | – | – | – |
| CCOc1cc(Br)cc2c1OCC([N+](=O)[O-])=C2 | 330 | 920 | Active | Active | 20 | Active | Active | Active | Active | Active | Active | Active | Active | Active | 12600 | 20400 | 2030 | Active | inhibition (SK-OV-3 [12]): inactive; inhibition (A549 [13]): inactive; inhibition (H47D [14]): Active; Activity (A549 [15]): Active; inhibition (A549 [16]): Active; inhibition of growth at 20 µM (HeLa [3]; read-out: GI): > 90%; growth inhibition (GI) (HeLa [17]): Dose-dependent effect; inhibition (H47D [18]): inactive; inhibition (HeLa [19]): inactive |
